# Measurements published in patent US20020035061A1, “COMPOSITIONS AND METHODS FOR TREATING INFECTIONS USING CATIONIC PEPTIDES ALONE OR IN COMBINATION WITH ANTIBIOTICS” (priority 1996, published 2002).
# Where “and” joins values, the source holds several entries; their conditions need not be identical. Equal values may be shown once. Read-outs that look alike come from different tables or passages of the source.
# How the values were obtained:
# A. calcoaceticus = type: cell-based
# E. cloacae = type: cell-based
# E. coli = type: cell-based; conditions: for Peptide MIC values: agarose dilution
# E. faecalis = type: cell-based; conditions: for MIC, Peptide: unmodified parent peptide
# E. faecium = type: cell-based
# H. influenzae = test: Agarose dilution assay (MIC); type: cell-based
# K. pneumoniae = type: cell-based
# P. aeruginosa = type: cell-based; conditions: for Peptide MIC values: agarose dilution
# P. mirabilis = test: Agarose dilution assay (MIC); type: cell-based
# S. aureus = type: cell-based; conditions: for MIC, Peptide: unmodified parent peptide; for Peptide MIC values: agarose dilution
# S. epidermidis = type: cell-based
# S. maltophilia = type: cell-based
# S. marcescens = type: cell-based
# S. pneumoniae = test: Agarose dilution assay (MIC); type: cell-based; conditions: for Peptide MIC values: agarose dilution
# [1] = tested on: inherently resistant microorganisms; test: microbe, parasite or virus in culture; type: cell-based
# [2] = tested on: MSSA (Smith, ATCC # 19640); test: In vivo efficacy, MSSA infection; design: species or system S. aureus; conditions: formulation D; for % Survival: 60 min post-infection, end of eight day observation
# [3] = tested on: H460, non-small lung tumor; test: Cell death by Cytotox (Promega) lactate dehydrogenase release; type: cell-based; conditions: LDH release
# Description: (§1) In addition, APO-peptides and parent peptides are tested against a panel of cancer cell lines. Cell death is measured using the Cytotox (Promega) assay kit which measures the release of lactate dehydrogenase.
# (§2) PBL, peripheral blood lymphocytes; HUVEC, human umbilical vein endothelial cells; H460,non-small lung tumor; K562, chronic myelogenous leukemia; DoHH-2, B-cell cell lymphoma; P388, lymphocytic leukemia; P388ADR, lymphocytic leukemia, multidrug resistant; MCF-7, breast carcinoma; MCF-7ADR, breast carcinoma, multidrug resistant.
# [4] = tested on: HUVEC, human umbilical vein endothelial cells; test: as above; type: cell-based; conditions: LDH release
# Description: as §1, §2
# MCF-7, breast carcinoma = test: as above; type: cell-based; conditions: LDH release
# Description: as §1, §2
# [5] = tested on: P388, lymphocytic leukemia; test: as above; type: cell-based; conditions: LDH release
# Description: as §1, §2
# [6] = tested on: PBL, peripheral blood lymphocytes; test: as above; type: cell-based; conditions: LDH release
# Description: as §1, §2
sequence,measurement,setting,value
ILRWPWWPWRRK [MBI 11B7CN],"MIC, Peptide","A. calcoaceticus; A. calcoaceticus AC002, unmodified parent peptide",2 µg/mL
same,MIC,A. calcoaceticus; A. calcoaceticus strain AC003,32 µg/mL
same,"MIC, Peptide","E. cloacae; E. cloacae ECL007, unmodified parent peptide",128 µg/mL
same,MIC,E. cloacae; E. cloacae strain ECL0009,32 µg/mL
same,"MIC, Peptide","E. coli; E. coli ECO005, unmodified parent peptide",4 µg/mL
same,MIC,E. coli; E. coli strain ECO002,8 µg/mL
same,"MIC, Peptide",E. faecalis; E. faecalis EFS004,8 µg/mL
same,"MIC, Peptide",E. faecalis; E. faecalis EFS008,2 µg/mL and 4 µg/mL
same,MIC,E. faecalis; E. faecalis strain EFS004,4 µg/mL
same,MIC,E. faecium; E. faecium strain EFM001,4 µg/mL
same,MIC,H. influenzae; H. influenzae strain HIN002,>128 µg/mL
same,"MIC, Peptide","K. pneumoniae; K. pneumoniae KP001, unmodified parent peptide",4 µg/mL and 8 µg/mL
same,MIC,K. pneumoniae; K. pneumoniae strain KP0011,32 µg/mL
same,"MIC, Peptide","P. aeruginosa; P. aeruginosa PA004, unmodified parent peptide",128 µg/mL
same,MIC,P. aeruginosa; P. aeruginosa strain PA004,128 µg/mL
same,MIC,P. mirabilis; P. mirabilis strain PM002,>128 µg/mL
same,"MIC, Peptide",S. aureus; S. aureus SA010,1 µg/mL
same,"MIC, Peptide",S. aureus; S. aureus SA011,4 µg/mL
same,"MIC, Peptide",S. aureus; S. aureus SA014,2 µg/mL
same,"MIC, Peptide",S. aureus; S. aureus SA018,16 µg/mL
same,"MIC, Peptide",S. aureus; S. aureus SA025,1 µg/mL
same,"MIC, Peptide",S. aureus; S. aureus SA093,1 µg/mL
same,MIC,S. aureus; S. aureus strain SA009,2 µg/mL
same,"MIC, Peptide","S. epidermidis; S. epidermidis SE010, unmodified parent peptide",2 µg/mL
same,MIC,S. epidermidis; S. epidermidis strain SE003,2 µg/mL
same,"MIC, Peptide","S. maltophilia; S. maltophilia SMA002, unmodified parent peptide",16 µg/mL
same,MIC,S. maltophilia; S. maltophilia strain SMA004,128 µg/mL
same,"MIC, Peptide","S. marcescens; S. marcescens SMS003, unmodified parent peptide",>128 µg/mL
same,MIC,S. marcescens; S. marcescens strain SBSM1,>128 µg/mL
same,MIC,S. pneumoniae; S. pneumoniae strain SBSPN3,>128 µg/mL
same,Peptide MIC + Ceftriaxone,[1]; P. aeruginosa,64 µg/mL
same,Peptide MIC Alone,"[1]; P. aeruginosa, Ceftriaxone section",128 µg/mL
same,Peptide MIC + Piperacillin,[1]; S. aureus MRSA,2 µg/mL
same,Peptide MIC Alone,"[1]; S. aureus MRSA, Piperacillin section",4 µg/mL
same,Peptide MIC Alone,"[1]; S. maltophilia, Ceftriaxone section",32 µg/mL
same,FIC,"[1]; peptide + Ceftriaxone, P. aeruginosa",0.50
same,FIC,"[1]; peptide + Piperacillin, S. aureus MRSA",0.50
same,% Survival,[2]; 12 mg/kg ip,0%
same,% Survival,[2]; 18 mg/kg ip,10%
same,% Survival,[2]; 24 mg/kg ip,60%
same,"LC50 ± S.E., H460",[3],26 ± 25 µg/mL
same,"LC50 ± S.E., HUVEC",[4],90 ± 23 µg/mL
same,"LC50 ± S.E., MCF-7","MCF-7, breast carcinoma",>700 µg/mL
same,"LC50 ± S.E., P388",[5],13.8 µg/mL
same,"LC50 ± S.E., PBL",[6],24 ± 10 µg/mL
ILKKWPWWPWRRK [MBI 11CN],MIC,A. calcoaceticus; A. calcoaceticus AC001,128 µg/mL
same,MIC,E. cloacae; E. cloacae ECL007,>64 µg/mL
same,MIC,E. coli; E. coli ECO002,8 µg/mL
same,Peptide MIC values,E. coli; E. coli ATCC 25922,16 µg/mL
same,Peptide MIC values,E. coli; E. coli NCTC 10418,4 µg/mL
same,MIC,E. faecalis; E. faecalis EFS001,32 µg/mL
same,MIC,E. faecium; E. faecium EFM001,8 µg/mL
same,Peptide MIC values,E. faecium; agarose dilution,8 µg/mL
same,MIC,H. influenzae; H. influenzae HIN001,>128 µg/mL
same,MIC,K. pneumoniae; K. pneumoniae KP002,128 µg/mL
same,MIC,P. aeruginosa; P. aeruginosa PA003,>128 µg/mL
same,Peptide MIC values,P. aeruginosa; P. aeruginosa ATCC 27853,>128 µg/mL
same,Peptide MIC values,P. aeruginosa; P. aeruginosa NCTC 10662,>128 µg/mL
same,MIC,P. mirabilis; P. mirabilis PM002,>128 µg/mL
same,MIC,S. aureus; S. aureus SA003,2 µg/mL
same,Peptide MIC values,S. aureus; S. aureus MRSA9,2 µg/mL
same,Peptide MIC values,S. aureus; S. aureus MRSA13,16 µg/mL
same,Peptide MIC values,S. aureus; S. aureus MRSA17,4 µg/mL
same,MIC,S. epidermidis; S. epidermidis SE001,2 µg/mL
same,MIC,S. maltophilia; S. maltophilia SMA001,64 µg/mL
same,MIC,S. marcescens; S. marcescens SBSM1,>128 µg/mL
same,MIC,S. marcescens; S. marcescens SMS003,>128 µg/mL
same,Peptide MIC values,"S. marcescens; agarose dilution, S. marcescens SM82",>128 µg/mL
same,MIC,S. pneumoniae; S. pneumoniae SBSPN2,>128 µg/mL
same,Peptide MIC values,S. pneumoniae; S. pneumoniae 406LE8,>128 µg/mL
same,Peptide MIC values,S. pneumoniae; S. pneumoniae 60120,>128 µg/mL
same,Peptide MIC values,S. pneumoniae; S. pneumoniae ATCC 49619,64 µg/mL
same,% Survival,[2]; 12 mg/kg ip,0%
same,% Survival,[2]; 24 mg/kg ip,50%
same,mice rescued from MSSA infection,"[2]; mice, ip 60 min post-infection, 35.7 mg/kg",100%
same,activity,"[2]; mice, ip, dose levels lower than 35.7 mg/kg",little or no activity
same,"LC50 ± S.E., H460",[3],200 µg/mL
same,"LC50 ± S.E., HUVEC",[4],>190 µg/mL
same,"LC50 ± S.E., MCF-7","MCF-7, breast carcinoma",11.8 ± 9 µg/mL
same,"LC50 ± S.E., P388",[5],30 µg/mL
same,"LC50 ± S.E., PBL",[6],57 µg/mL
